Reference: publication PMC5773487, “Harnessing insulin- and leptin-induced oxidation of PTP1B for therapeutic development” (Nature Communications, 2018)
Entries after “also recorded” stand apart in the source; their conditions may differ.

T1: reversibly oxidized TCPTP-mut2 (F39L/E41K/R43K) (Homo sapiens, UniProt P17706, E41K/F39L/R43K)
T1 construct: PTP1B (1–321) and TCPTP (1–317) cloned in pET21b vector were used as templates; 6xHis (C); made in house; host or cells: E. coli BL21 (DE3)-RIL
T1 sequence (P17706 1-317 F39L/E41K/R43K): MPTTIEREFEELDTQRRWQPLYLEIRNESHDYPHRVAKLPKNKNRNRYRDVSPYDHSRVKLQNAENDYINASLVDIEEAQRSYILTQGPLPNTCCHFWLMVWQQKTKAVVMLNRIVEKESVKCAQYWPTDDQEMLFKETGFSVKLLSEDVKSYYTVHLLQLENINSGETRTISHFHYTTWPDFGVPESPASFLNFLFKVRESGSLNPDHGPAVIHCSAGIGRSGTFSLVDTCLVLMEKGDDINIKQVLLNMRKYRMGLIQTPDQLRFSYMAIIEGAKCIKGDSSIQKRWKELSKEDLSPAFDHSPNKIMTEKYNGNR

T2: reversibly oxidized PTP1B-mut2 (L37F/K39E/K41R) (Homo sapiens, UniProt P18031, K39E/K41R/L37F)
T2 construct: PTP1B (1–321) and TCPTP (1–317) cloned in pET21b vector were used as templates; 6xHis (C); made in house; host or cells: E. coli BL21 (DE3)-RIL
T2 sequence (P18031 1-321 L37F/K39E/K41R): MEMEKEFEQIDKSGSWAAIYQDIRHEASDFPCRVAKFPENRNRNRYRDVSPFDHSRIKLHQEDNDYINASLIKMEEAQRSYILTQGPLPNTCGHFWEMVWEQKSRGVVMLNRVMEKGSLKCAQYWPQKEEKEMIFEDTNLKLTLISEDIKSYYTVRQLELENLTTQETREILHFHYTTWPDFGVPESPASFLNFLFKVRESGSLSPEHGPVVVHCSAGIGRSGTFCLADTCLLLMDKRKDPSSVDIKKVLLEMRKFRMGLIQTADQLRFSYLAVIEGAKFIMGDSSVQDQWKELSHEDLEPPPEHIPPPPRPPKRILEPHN

B1: scFv45: recombinant conformation-sensor single-chain variable fragment antibody recognizing oxidized PTP1B (antibody, V domains shown)
VH: TVTLDESGGGLQAPGGALSLVCKASGFTFSSYDMGWIRQAPGKGLEYVAGITDNGRYASYGSAVDGRATISRDNGQSSVRLQLNNLRAEDTGTYYCARDDGSGWTGNSIDAWGHGTEVIVSE
VL: ALTQPSSVSANPGGTVKITCSGSSSAYGYGWYQQKSPGSAPVTVIYNNNKRPSNIPSRFSGSKSGSTGTLTITGVQAEDEAVYFCGSEDSSTDAIFGAGTTLTVL

Key:
[1] = test system: insulin signaling in 293T cells; assay: insulin signaling in 293T cells (immunoblot); assay type: cell-based; conditions: for insulin-induced activation of AKT (pThr308) / insulin-induced phosphorylation of insulin receptor β-subunit (IR-β): 293T cells, compound 2 μM 1 h, insulin 25 nM
Description: To study the effect of chelerythrine and protopine on insulin signaling we used 293T cells (ATCC) and cultured in DMEM containing 10% FBS. For insulin signaling, cells were serum starved for 16 h and then treated with chelerythrine (2 µM) or protopine (2 µM) for 1 h. Following which, cells were treated with 25 nM insulin for various times (0, 5, 10, 20 min) at 37 °C. Cells were washed with PBS and lysed in de-gassed RIPA lysis buffer (25 mM HEPES pH 7.5, 150 mM NaCl, 0.25% Deoxychloate, 10% Glycerol, 25 mM NaF, 10 mM MgCl2, 1 mM EDTA, 1% Triton X-100, 0.5 mM PMSF, 10 mM Benzamidine, cOmplete protease inhibitor cocktail (Roche)). Soluble proteins were harvested by centrifugation at 13,000×g for 10 min at 4 °C and quantitated. Total proteins in the cell lysates were separated by SDS-PAGE and tyrosyl phosphorylation of the IR-β subunit and downstream AKT activation was monitored. To test the effect of suppressing H2O2 levels on the function of the compounds, catalase was ectopically expressed in cells for 24 h. Following which, the cells were treated with the compounds as mentioned above. […] Catalase expression was detected in the cell samples with a rabbit polyclonal antibody (Abcam, ab52477).
Mammalian expression plasmids used in this study were as follows: pCMV-FLAG and pCMV-FLAG-PTP1B (wt and -mut2). Empty vector, FLAG-PTP1B-wt, or FLAG-PTP1B-mut2 were transfected into 293T cells for 24 h, following which, cells were serum starved for 8 h and then treated with chelerythrine (2 µM) for 1 h. Subsequently, cells were treated with 10 nM insulin for various times (0, 10, 20 min) at 37 °C. Cells were washed with PBS and lysed in de-gassed RIPA lysis buffer (25 mM HEPES pH 7.5, 150 mM NaCl, 0.25% Deoxycholate, 10% Glycerol, 25 mM NaF, 10 mM MgCl2, 1 mM EDTA, 1% Triton X-100, 0.5 mM PMSF, 10 mM Benzamidine, cOmplete protease inhibitor cocktail (Roche)). Soluble proteins were harvested by centrifugation at 13,000×g for 10 min at 4 °C and quantitated. Total proteins in the cell lysates were separated by SDS-PAGE and tyrosyl phosphorylation of the IR-β subunit was analyzed by immunoblotting.

[2] = biological target: T1, reversibly oxidized TCPTP-mut2 (F39L/E41K/R43K); assay: in vitro binding assay (anti-HA co-immunoprecipitation)
Description: (§1) Purified proteins (wt or mutant form of PTP1B or TCPTP (50 nM)) were reversibly oxidized with […] H2O2 followed by a buffer exchange using 0.5 mL Zeba spin desalting columns 7K MWCO (Thermo Fisher Scientific) to remove H2O2. Increasing concentration of purified HA-tagged scFv45 (0–10 µM) was incubated with oxidized proteins in binding buffer (20 mM HEPES, pH 7.4, 300 mM NaCl, 0.05% BSA, 0.05% Tween-20) for 2 h at 4 °C. Anti-HA agarose (Roche, 50% slurry equilibrated in the binding buffer) was added and incubated for 1 h at 4 °C. Protein complexes bound to anti-HA beads were immunoprecipitated and washed three times; first with lysis buffer followed by two more washes with wash buffer (25 mM HEPES, 100 mM NaCl pH 7.4, 0.05% BSA, 0.05% Tween-20, and protease inhibitors). The complexes were separated by SDS-PAGE and analyzed by immunoblotting.

[3] = biological target: T2, reversibly oxidized PTP1B-mut2 (L37F/K39E/K41R); assay: as above
Description: as §1

Molecule | basal signaling in the absence of insulin or leptin [1] | stimulatory effect on IR-β phosphorylation and AKT activation upon catalase overexpression ([1]; 293T cells expressing catalase, 2 μM) | insulin-induced activation of AKT (pThr308) [1] | insulin-induced phosphorylation of insulin receptor β-subunit (IR-β) [1] | insulin signaling in cells expressing PTP1B-mut2 ([1]; 293T, 2 μM, insulin 10 nM) | insulin signaling in control and PTP1B-wt expressing cells ([1]; 293T, 2 μM, insulin 10 nM) | observed cellular efficacy ([1]; reviewer's remark in peer review file) | binding to reversibly oxidized TCPTP-mut2 [2] | binding to reversibly oxidized PTP1B-mut2 [3]
COc1ccc2c(c[n+](C)c3c4cc5c(cc4ccc23)OCO5)c1OC [chelerythrine] | no impact | ablated | enhanced | enhanced and sustained phosphorylation | insensitive | elevated insulin signaling | < 2 µM | – | –
CN1CCc2cc3c(cc2C(=O)Cc2ccc4c(c2C1)OCO4)OCO3 [protopine] | – | – | no significant effect | no significant effect | – | – | – | – | –
B1 | – | – | – | – | – | – | – | promote binding | did not bind; also recorded: abrogated
